Results reported in PMC12207360, “Hyperpolarization Modulation of the T‐Type hCav3.2 Channel by Human Synenkephalin [1–53], a Shrew Neurotoxin Analogue without Paralytic Effects” (Angewandte Chemie (International Ed. in English), 2025).
Marks after values point to notes of the source that are not given here.

Assays:
[1] = ColabFold-predicted structure, cited from earlier work
Text: To compare the structural properties of hSYN and BPP2, we next examined their three‐dimensional structures using ColabFold^[ [64] ^] (a Google Colab version of AlphaFold2^[ [65] ^] using MMSeq2^[ [66] ^]). […] The four helical structures of hSYN were hi ... || Figure 3 Proposed three‐dimensional structures of hSYN and BPP2. a) ColabFold‐predicted structure of hSYN. Disulfide bonds are highlighted in orange sticks. b) Proposed helices in the calculated structures. c) CD spectra of hSYN. Obs: Synthetic 2 (20 µM) was measured in 50 mM potassium phosphate (pH 7.0) at 25 °C. Calc: The ColabFold‐predicted structure was analyzed using the PDBMD2CD server. d) Calculated helicities (%) of each model by three methods based on the CD spectra. e) Superimposed structures of hSYN (blue white) and BPP2 (pale green). Key residues that interact between the helixes a ...

[2] = tested on: human T-type voltage-gated calcium channel (hCav3.2); settings: 0.84 µM; synthetic BPP2; cited from earlier work
Text: (§1) The short‐tailed shrew Blarina brevicauda is one of the rare venomous mammals that has potent neurotoxins in its saliva and effectively captures prey such as earthworms and small insects.^[ [25] ^] Since Blarina shrew venom causes severe pain in those bitten,^[ [26] ^] it was predicted that the venom targets specific ion channels related to pain and neurotransmission.^[ [27] ^] Recently, we isolated and characterized Blarina paralytic peptides (BPPs) 1 and 2 as major active substances against mealworms (Figure 1a).^[ [28] ^] BPP2 was chemically synthesized based on the gene sequence of the pre ...

[3] = tested on: hCav2.2; settings: synthetic BPP2; cited from earlier work
Text: as §1

[4] = tested on: mealworms (larva of Zophobas atratus); settings: cited from earlier work
[5] = tested on: glutamyl endopeptidase (Glu-C); settings: core N-terminal 1–41 part of BPP2; cited from earlier work
Protocol: (§2) To determine the connectivity of disulfide bonds in synthetic 2, enzymatic digestion and subsequent fragment peptide analysis were performed. […] However, due to high proteolytic stability, analysis of these degraded products provid ...

[6] = tested on: trypsin; settings: core N-terminal 1–41 part of BPP2; cited from earlier work
Protocol: as §2

[7] = target: human T-type voltage-gated calcium channel hCav3.2 (human) (UniProt O95180)
Chain of UniProt O95180 (O95180 whole entry): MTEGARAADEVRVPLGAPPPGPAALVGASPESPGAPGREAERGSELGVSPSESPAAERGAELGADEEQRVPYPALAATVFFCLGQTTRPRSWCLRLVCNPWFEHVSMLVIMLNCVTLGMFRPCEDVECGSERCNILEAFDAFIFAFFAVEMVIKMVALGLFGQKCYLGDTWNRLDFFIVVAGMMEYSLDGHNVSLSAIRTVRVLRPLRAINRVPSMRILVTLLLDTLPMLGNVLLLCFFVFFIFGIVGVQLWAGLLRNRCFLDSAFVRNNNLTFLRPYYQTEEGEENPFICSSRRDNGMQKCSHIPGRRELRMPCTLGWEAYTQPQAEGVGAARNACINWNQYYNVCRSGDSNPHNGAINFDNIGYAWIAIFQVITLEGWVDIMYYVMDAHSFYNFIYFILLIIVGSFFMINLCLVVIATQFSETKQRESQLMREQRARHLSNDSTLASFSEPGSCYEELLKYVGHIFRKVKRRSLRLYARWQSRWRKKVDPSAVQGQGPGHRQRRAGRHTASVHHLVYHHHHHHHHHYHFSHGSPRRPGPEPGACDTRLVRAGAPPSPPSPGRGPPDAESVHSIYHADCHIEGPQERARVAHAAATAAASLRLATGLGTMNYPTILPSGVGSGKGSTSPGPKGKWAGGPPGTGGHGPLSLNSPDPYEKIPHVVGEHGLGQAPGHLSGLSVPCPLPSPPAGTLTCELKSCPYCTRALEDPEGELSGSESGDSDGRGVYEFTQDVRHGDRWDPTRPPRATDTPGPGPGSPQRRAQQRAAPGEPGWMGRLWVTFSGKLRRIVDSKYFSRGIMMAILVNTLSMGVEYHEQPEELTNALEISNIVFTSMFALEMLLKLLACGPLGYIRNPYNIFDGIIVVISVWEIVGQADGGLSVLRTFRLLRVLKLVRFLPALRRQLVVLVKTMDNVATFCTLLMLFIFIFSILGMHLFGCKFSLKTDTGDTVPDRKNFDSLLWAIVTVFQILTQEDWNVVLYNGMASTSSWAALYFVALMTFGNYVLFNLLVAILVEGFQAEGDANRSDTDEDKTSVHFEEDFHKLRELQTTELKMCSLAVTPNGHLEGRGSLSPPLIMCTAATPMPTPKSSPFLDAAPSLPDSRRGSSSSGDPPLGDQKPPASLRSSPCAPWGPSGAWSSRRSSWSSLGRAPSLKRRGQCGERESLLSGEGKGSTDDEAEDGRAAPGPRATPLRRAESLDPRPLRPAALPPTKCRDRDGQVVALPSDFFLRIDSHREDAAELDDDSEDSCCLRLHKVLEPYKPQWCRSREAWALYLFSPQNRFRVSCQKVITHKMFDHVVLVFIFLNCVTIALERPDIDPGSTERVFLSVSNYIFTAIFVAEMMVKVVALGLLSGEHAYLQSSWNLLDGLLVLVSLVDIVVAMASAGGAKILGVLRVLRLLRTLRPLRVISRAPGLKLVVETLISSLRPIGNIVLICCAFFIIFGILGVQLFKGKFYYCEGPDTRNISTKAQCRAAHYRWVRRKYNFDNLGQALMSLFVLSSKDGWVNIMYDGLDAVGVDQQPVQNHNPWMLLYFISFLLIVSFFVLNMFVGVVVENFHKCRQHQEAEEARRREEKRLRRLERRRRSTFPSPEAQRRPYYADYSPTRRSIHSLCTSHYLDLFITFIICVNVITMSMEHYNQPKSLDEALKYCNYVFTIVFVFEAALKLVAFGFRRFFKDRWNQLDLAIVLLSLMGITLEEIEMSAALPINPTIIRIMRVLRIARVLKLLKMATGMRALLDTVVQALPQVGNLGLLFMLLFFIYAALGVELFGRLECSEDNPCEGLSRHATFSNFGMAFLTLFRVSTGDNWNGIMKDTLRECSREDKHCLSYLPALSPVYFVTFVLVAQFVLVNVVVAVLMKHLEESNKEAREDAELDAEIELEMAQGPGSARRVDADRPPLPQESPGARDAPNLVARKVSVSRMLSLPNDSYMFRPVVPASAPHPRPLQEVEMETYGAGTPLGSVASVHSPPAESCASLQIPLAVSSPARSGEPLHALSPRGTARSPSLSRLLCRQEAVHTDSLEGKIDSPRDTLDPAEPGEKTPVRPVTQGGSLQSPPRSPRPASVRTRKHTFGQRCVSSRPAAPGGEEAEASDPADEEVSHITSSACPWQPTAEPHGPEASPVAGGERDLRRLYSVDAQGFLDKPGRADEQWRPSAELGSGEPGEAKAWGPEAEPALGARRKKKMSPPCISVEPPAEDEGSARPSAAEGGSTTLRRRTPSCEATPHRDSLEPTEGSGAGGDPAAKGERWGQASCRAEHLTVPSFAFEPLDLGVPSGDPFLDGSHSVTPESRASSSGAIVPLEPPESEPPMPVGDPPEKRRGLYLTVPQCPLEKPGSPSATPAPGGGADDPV

In the case of Blarina paralytic peptide 2 [BPP2], the “Helicity, calculated, BestSel” value ([1]; BestSel server) is given as 48.9%, the “Helicity, calculated, K2D3” value ([1]; K2D3 server) is given as 54.9% and the “Helicity, calculated, PDBMD2CD” value ([1]; PDBMD2CD server) is given as 55.7%. The “hyperpolarization shift in the activation of hCav3.2” value [2] was “–11 mV”, the “effect on hCav2.2” value [3] was “no significant effect on hCav2.2” and the Paralyzed/total numbers ([4]; i.p., 5.6 µg/g bodyweight) was 3/3 ^b). For the same substance, the “paralytic effect on mealworms” value ([4]; synthetic BPP2, intraperitoneal, 5.6 µg g−1 body weight, immediately after administration) was “reliably induces paralysis and convulsions in mealworms”, the “proteolytic stability toward Glu-C” value [5] was “highly stable” and the “proteolytic stability toward trypsin” value [6] was “highly stable”.
“human synenkephalin N-terminal part [1–53] (hSYN), Type II disulfide bond connectivity, synthetic compound 2 (peptide)” showed a hyperpolarization shift of hCav3.2 activation at 0.74 µM hSYN (2); whole-cell patch clamp on HEK293T cells expressing hCav3.2, n = 5 [7] of -15 mV.
